Test results from ChEMBL document CHEMBL1201862, “PubChem BioAssay data set” (2004).
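Protocol summary: plate cells (96-well), add compound at 5 concentrations, incubate 48 h, interpolate endpoints linearly. GI50 marks 50% less growth.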 Activity calls are given as the source filed them. No stated cut-off is given here; in the data, active = GI50 up to about 1.1 µM and inactive = higher.

Tests used:
Test in all cases: NCI-60 cell line screen, 48 h
[1] = test system: NCI-H23
[2] = test system: Malme-3M
[3] = test system: UACC-62
[4] = test system: MDA-MB-435
[5] = test system: RXF 393
[6] = test system: HOP-92
[7] = test system: UACC-257
[8] = test system: ACHN
[9] = test system: OVCAR-4
[10] = test system: COLO 205
[11] = test system: EKVX
[12] = test system: KM12
[13] = test system: M14
[14] = test system: SK-MEL-2
[15] = test system: 786-0
[16] = test system: HOP-62
[17] = test system: A498
[18] = test system: K562
[19] = test system: MDA-MB-231
[20] = test system: MDA-N

Measured: GI50

CCOC(=O)Cc1csc(N/C=C2/C(=O)Oc3ccccc3C2=O)n1
inactive: [1] 22.8 µM | [2] 1.79 µM | [3] 13.5 µM | [4] 23.9 µM | [5] 14.7 µM | [6] 11.7 µM | [7] 20.8 µM | [8] 12 µM | [9] 31.7 µM | [10] 44.7 µM | [11] 35.8 µM | [12] 27.8 µM | [13] 23.8 µM | [14] 13.6 µM | [15] 26.4 µM | [16] 20.9 µM

Cc1cc2c(C(C)C)c(O)c(O)c(/C=N/c3cc(C(F)(F)F)ccc3Cl)c2c(O)c1-c1c(C)cc2c(C(C)C)c(O)c(O)c(/C=N/c3cc(C(F)(F)F)ccc3Cl)c2c1O
inactive: [1] 57.8 µM | [2] 32.8 µM | [3] 24.6 µM | [17] 64.3 µM | [4] 32.6 µM | [5] 28.8 µM | [6] 16.6 µM | [7] 37.4 µM | [8] 24.9 µM | [18] 39.4 µM | [10] 31.2 µM | [11] 98.6 µM | [12] 30.1 µM | [13] 75.3 µM | [19] 25.6 µM | [14] 35.3 µM | [15] 50.6 µM | [16] 70.5 µM

CC[C@@]1(C[C@H]2C[C@@]3(C(=O)OC)c4[nH]c5ccccc5c4CCN3C2=S)COC2(CCCCC2)O1
inactive: [1] 21.4 µM | [2] > 100 µM | [3] 11.3 µM | [17] 88.7 µM | [4] 5.09 µM | [5] 59.6 µM | [6] 2.62 µM | [7] 26.5 µM | [8] 45.8 µM | [18] 5.48 µM | [9] > 100 µM | [10] 7.41 µM | [11] 58.9 µM | [12] 4.47 µM | [13] 23.7 µM | [20] 66.8 µM | [14] > 100 µM | [15] > 100 µM | [16] 22.2 µM

CC1=C([S+]([O-])c2ccc(C)cc2)CCC2(CCCCO2)O1 (stereo not drawn)
inactive: [1] > 100 µM | [2] > 100 µM | [3] > 100 µM | [17] > 100 µM | [4] > 100 µM | [5] > 100 µM | [7] > 100 µM | [8] > 100 µM | [18] 46.8 µM | [9] > 100 µM | [10] > 100 µM | [11] > 100 µM | [12] > 100 µM | [19] > 100 µM | [14] 64.3 µM | [15] > 100 µM | [16] > 100 µM

N#CC12C(=O)NC(=O)C1(C#N)C1C=CC2CC1 (stereo not drawn)
inactive: [1] > 100 µM | [2] > 100 µM | [3] > 100 µM | [4] > 100 µM | [5] > 100 µM | [7] > 100 µM | [8] > 100 µM | [9] > 100 µM | [10] > 100 µM | [11] > 100 µM | [12] > 100 µM | [13] > 100 µM | [20] > 100 µM | [15] > 100 µM

O=C1Cc2ccccc2CCc2ccccc21
inactive: [1] 74.6 µM | [2] 44.7 µM | [3] > 100 µM | [17] > 100 µM | [5] > 100 µM | [6] 35.6 µM | [7] > 100 µM | [8] > 100 µM | [18] 75.3 µM | [9] > 100 µM | [10] > 100 µM | [11] 79.6 µM | [12] > 100 µM | [13] > 100 µM | [14] 64.1 µM | [15] > 100 µM | [16] > 100 µM

CCOC(=O)C1=C(O)C(=O)c2c(OC)ccc(OC)c2C1=O
inactive: [1] > 100 µM | [2] > 100 µM | [3] > 100 µM | [17] > 100 µM | [5] > 100 µM | [6] > 100 µM | [7] > 100 µM | [8] > 100 µM | [18] > 100 µM | [9] > 100 µM | [10] > 100 µM | [11] > 100 µM | [12] > 100 µM | [13] > 100 µM | [14] > 100 µM | [15] > 100 µM | [16] > 100 µM

Oc1ccc(-c2c3ccccc3c(-c3ccc(O)cc3)c3ccccc23)cc1
inactive: [1] > 100 µM | [2] > 100 µM | [3] 41 µM | [17] > 100 µM | [5] > 100 µM | [6] > 100 µM | [7] > 100 µM | [8] 89.9 µM | [18] > 100 µM | [9] > 100 µM | [10] > 100 µM | [11] > 100 µM | [12] > 100 µM | [13] > 100 µM | [14] > 100 µM | [15] > 100 µM | [16] > 100 µM

CCN(CC)CCNc1ccc(/N=N/c2ccc(S(N)(=O)=O)cc2)c2ccccc12
inactive: [1] 23.2 µM | [2] 15.7 µM | [3] 8.61 µM | [17] 14.1 µM | [4] 7.35 µM | [5] 3.61 µM | [6] 14.9 µM | [7] 14.9 µM | [8] 13 µM | [18] 3.13 µM | [9] 12.9 µM | [10] 4.24 µM | [11] 19 µM | [12] 6.01 µM | [13] 3.72 µM | [19] 4.33 µM | [14] 5.9 µM | [15] 4.62 µM | [16] 6.73 µM

O=S(O)CCCCCSSCCCCSSCCCCCS(=O)O
inactive: [1] > 100 µM | [2] 27.7 µM | [3] > 100 µM | [17] > 100 µM | [5] > 100 µM | [6] > 100 µM | [7] > 100 µM | [8] > 100 µM | [18] 48.1 µM | [9] > 100 µM | [10] > 100 µM | [11] > 100 µM | [12] > 100 µM | [13] > 100 µM | [14] > 100 µM | [15] > 100 µM | [16] > 100 µM

O=C1Oc2cc3c(c4cccc1c24)OCN(c1ccccc1)C3
inactive: [1] > 100 µM | [2] > 100 µM | [3] 36.5 µM | [17] > 100 µM | [5] > 100 µM | [6] 41.7 µM | [7] > 100 µM | [8] > 100 µM | [18] 23.2 µM | [9] > 100 µM | [10] > 100 µM | [11] > 100 µM | [12] > 100 µM | [13] > 100 µM | [14] > 100 µM | [15] > 100 µM | [16] > 100 µM
